Measured values from patent US20200247761A1, “SULFONAMIDE OR AMIDE COMPOUNDS, COMPOSITIONS AND METHODS FOR THE PROPHYLAXIS AND/OR TREATMENT OF AUTOIMMUNE, INFLAMMATION OR INFECTION RELATED DISORDERS” (TAIWANJ PHARMACEUTICALS CO., LTD, priority 2017, published 2020).
Read-outs that look alike come from different tables or passages of the source.

What was measured:
Type in all cases: cell-based
[1] = system: mTNF-α secretion from LPS-stimulated RAW264.7 monocytes; test: LPS induced mTNF-α release from RAW264.7 cells (ELISA); details: Mus musculus
Description: To confirm whether the inhibitory effect of the selected compounds of example 2.1 (i.e., Compounds 12, 15, 19, 20, 22, 24, 28, 30, 32, 34, 36, 38, 40, 42, 44, 45, 49, 50, 52 and 70) translates to anti-inflammation, they were further tested to see if any of them may suppress mTNF-α secretion from lipopolysaccharide (LPS)-stimulated RAW264.7 monocytes.
To this purpose, RAW264.7 cells were seeded at 1.6×10^5 cells/well into 96-well culture plates. Test compounds (i.e., Compounds 12, 15, 19, 20, 22, 24, 28, 30, 32, 34, 36, 38, 40, 42, 44, 45, 49, 50, 52 and 70, respectively at 10 μM) were added into the culture plates in triplicate and co-cultured at 37° C. in 5% CO2 for 30 minutes. LPS (final conc. 10 ng/ml/well) was then added into the culture plates and the cells were incubated for another 4 hours. At the end of culture, the cultured media were harvested for mTNF-α quantification by ELISA with commercial assay kits (R&D Systems, Minneapolis, Minn.) following the manufacturer's protocol. Signals of the individual samples in 96-well plates were detected at O.D.450 nm/570 nm with a Molecular Devices SpectraMax i3 Imaging Cytometer. The mTNF-α activity was expressed in percentage of viable LPS-stimulated cells without test compound treatment.

[2] = target: T1, Toll-like receptor 4 (TLR4) (Homo sapiens, UniProt O00206); test: TLR4 activity: NF-κB-inducible SEAP reporter in LPS-stimulated TLR4-expressing HEK293 cells; details: for inhibition at 10 µM: Test Con. 10 μM, LPS 10 ng/ml, 16-24 hours, HEK293 cells expressing TLR4, read-out: TLR-4 inhibition (%) mean; for activity towards TLR-4 (in words): summary of Table 1 (10, 20 or 100 μM)
T1 construct: expressed in transfected cells; host or cells: HEK293 cells engineered to express TLR4
T1 sequence (O00206 24-839, species assumed): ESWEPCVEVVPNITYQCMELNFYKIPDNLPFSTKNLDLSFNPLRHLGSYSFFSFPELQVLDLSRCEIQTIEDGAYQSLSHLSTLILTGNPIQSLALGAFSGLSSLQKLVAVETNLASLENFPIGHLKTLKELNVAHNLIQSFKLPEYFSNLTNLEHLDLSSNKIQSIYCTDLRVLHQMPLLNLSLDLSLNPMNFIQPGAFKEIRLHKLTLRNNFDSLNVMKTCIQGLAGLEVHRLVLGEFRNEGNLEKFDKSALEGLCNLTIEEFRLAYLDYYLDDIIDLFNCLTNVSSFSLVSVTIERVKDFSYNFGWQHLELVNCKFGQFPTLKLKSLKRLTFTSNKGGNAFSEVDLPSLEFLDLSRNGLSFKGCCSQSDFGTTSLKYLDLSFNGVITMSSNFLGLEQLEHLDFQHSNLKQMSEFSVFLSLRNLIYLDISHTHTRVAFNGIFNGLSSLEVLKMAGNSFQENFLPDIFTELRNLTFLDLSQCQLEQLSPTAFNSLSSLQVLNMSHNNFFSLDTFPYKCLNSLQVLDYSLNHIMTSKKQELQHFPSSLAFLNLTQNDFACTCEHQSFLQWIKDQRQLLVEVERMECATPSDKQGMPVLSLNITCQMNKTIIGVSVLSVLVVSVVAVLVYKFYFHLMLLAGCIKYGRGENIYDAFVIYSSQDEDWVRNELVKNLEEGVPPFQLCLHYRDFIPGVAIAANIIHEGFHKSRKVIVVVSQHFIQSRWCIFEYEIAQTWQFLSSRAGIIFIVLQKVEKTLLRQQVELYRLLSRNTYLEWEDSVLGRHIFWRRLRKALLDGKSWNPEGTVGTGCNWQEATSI
T1 sequence (Q9Y6Y9 17-160 partner limits assumed, species assumed): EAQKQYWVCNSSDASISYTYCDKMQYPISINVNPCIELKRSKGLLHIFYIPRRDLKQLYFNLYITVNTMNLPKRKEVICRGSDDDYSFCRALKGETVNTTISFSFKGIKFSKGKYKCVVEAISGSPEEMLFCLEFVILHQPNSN
Description: Stimulation of the Toll-like receptor 4 (TLR4) was determined by assessing activation of the transcription factor NF-κB in HEK293 cells that were engineered to express TLR4. Assessment of TLR4 stimulation was based on the use of an NE-κB-inducible secreted alkaline phosphatase (SEAP) reporter system in which the SEAP reporter was under the control of a promoter inducible by NF-κB. Thus, the degree of activation of TLR4 can be indirectly quantified spectrophotometrically by measuring the amount of the SEAP reporter that is produced.
The TLR4-expressing cells were plated in HEK-Blue Detection (Invivogen, San Diego, Calif.) medium in a 96-well plate (25,000-50,000 cells/well). The cells were stimulated with lipopolysaccharides (LPS) alone or in combination with the compound of Example 1. Cell culture without LPS and the compound of Example 1 was defined as baseline control. To test whether the compound of Example 1 could block that activation of the TLR4, the cells were treated with the designated compound (10, 20 or 100 μM) and LPS (final conc. 10 ng/ml/well). After an incubation period (16-24 hours) at 37° C. in a CO2 incubator, the signals of individual samples in 96-well plates were detected at O.D.650 nm with a Molecular Devices SpectraMax i3 Imaging Cytometer. The TLR4 activity was expressed in percentage of LPS alone-stimulated cells minus baseline control.

[3] = system: RAW264.7 cells; test: Cell viability (MTT) of RAW264.7 cells; details: for toxic activity toward RAW264.7 cells (in words): Table 2, 10 μM; for Cell Viability (%) mean: Test Con. 10 μM, MTT, RAW264.7 cells, percentage of viable LPS-stimulated cells
Description: (§1) RAW264.7 cells (1.6×10^5 cells/well) or HEK 293 cells (2.5-5.0×10^4 cells/well) were seeded in 96-well plate overnight and treated with different compounds for 16-24 hours. Cells' growth were determined by MTT-based colorimetric assays. Viability of the test cells treated with vehicle (0.5% DMSO) only was defined as 100% viable. Survival of cells after treatment with DETDs was calculated using the following formula: viable cell number (%)=OD570 (treated cell culture)/OD570 (vehicle control)×100.
(§2) The cell viability assay was performed by the MTT method, in which cells were incubated with 45 μl of 5 mg/ml MTT for 1 hour at 37° C., and 150 μl of DMSO was added at the end of culture to dissolve the crystals. The signals of individual samples in 96-well plates were detected at O.D.570 nm with a Molecular Devices SpectraMax i3 Imaging Cytometer. Cell viability was expressed in percentage of viable LPS-stimulated cells.

[4] = system: HEK293 cells; test: Cell viability (MTT) of the TLR4-expressing HEK293 cells; details: Test Con. 10 μM, percentage of viable LPS-stimulated cells
Description: as §1
as §2, with “method. Cells” for “method, in which cells”

[5] = RAW264.7, Table 2, 10 μM, read-out: inhibition of LPS induced mTNF-α release from RAW264.7 cells
[6] = Test Con. 10 μM, LPS 10 ng/ml, 4 hours, RAW264.7 cells, read-out: mTNF-α inhibition (%) mean

Row | SMILES | inhibition at 10 µM [1, 5] [%] | inhibition at 10 µM [1, 6] [%] | inhibition at 10 µM [2] [%] | activity towards TLR-4 (in words) [2] | toxic activity toward RAW264.7 cells (in words) [3] | Cell Viability (%) mean [3] [%] | Cell Viability (%) mean [4] [%]
1 | C=C(C)C(=O)Nc1ccccc1S(=O)(=O)Nc1ccc(F)cc1Cl [Compound 45] | ~40 | 41.1 | 65.6 | moderate inhibitory activity | negligible to no toxic activity | 98.3 | 100.7
2 | C=CC(=O)N(c1ccc(F)cc1Cl)S(=O)(=O)N1CCC[C@H]1C(=O)OC [Compound 49] | 85 to 100 | 98.8 | 76.2 | moderate inhibitory activity | negligible to no toxic activity | 81.6 | 108.5
3 | C=CC(=O)N(c1ccc(F)cc1Cl)S(=O)(=O)N1CCCC1 [Compound 50] | 85 to 100 | 86.1 | 76 | moderate inhibitory activity | negligible to no toxic activity | 97.6 | 85.1
4 | C=CC(=O)N(c1ccc(F)cc1Cl)S(=O)(=O)N1CCCCC1C(=O)OC (stereo not shown) [Compound 52] | 85 to 100 | 97.2 | 100 | strong antagonist | negligible to no toxic activity | 88.1 | 92.2
5 | C=CC(=O)c1ccccc1S(=O)(=O)N(C)c1ccccc1 [Compound 70] | 85 to 100 | 100 | 100 | strong antagonist |  | 69.6 | 79.7
